The record followed here is patent publication US11884627B2, “Compounds and compositions for treating conditions associated with LPA receptor activity” (Lhotse Bio, Inc., priority 2022, dated 2024).

Experiment [1] addresses T1, human LPA1 (Homo sapiens, UniProt Q92633).
T1 construct: expressed in transfected cells; host or cells: CHO-K1
The experiment in a line: In vitro LPA1 functional antagonist assay (calcium mobilization, FLIPR). In kind it is cell-based. To be noted: CHO-K1 cells overexpressing human LPA1, Oleoyl LPA challenge at EC80. The procedure:
In Vitro LPA1 Functional Antagonist Assay
CHO-K1 cells overexpressing human LPA1 were seeded in a total volume of 20 μL into black-walled, clear-bottom. Poly-D-lysine coated 384-well microplates and incubated at 37° C., for the appropriate time prior to testing. Assays were performed in 1× Dye Loading Buffer consisting of 1× Dye, 1× Additive A and 2.5 mM Probenecid in HBSS/20 mM Hepes. Probenicid was prepared fresh. Cells were loaded with dye prior to testing. Media was aspirated from cells and replaced with 20 μL Dye Loading Buffer. Cells were incubated for 30-60 minutes at 37° C. After dye loading, cells were removed from the incubator and 10 μL 3× test compound was added. Cells were incubated for 30 minutes at room temperature in the dark to equilibrate plate temperature followed by Oleoyl LPA challenge at EC80. Compound antagonist activity was measured on a FLIPR Tetra (MSD). Calcium mobilization was monitored for 2 minutes and 10 μL Oleoyl LPA in HBSS/20 mM Hepes was added to the cells 5 seconds into the assay. For LPA EC80 determination, after dye loading, cells were removed from the incubator and 10 μL HBSS/20 mM Hepes was added. 3× vehicle was included in the buffer. Cells were incubated for 30 minutes at room temperature in the dark to equilibrate plate temperature. Intermediate dilution of LPA stocks was performed to generate 4×LPA samples in assay buffer. LPA agonist activity was measured on a FLIPR Tetra (MSD). Calcium mobilization was monitored for 2 minutes and 10 μL 4×LPA sample in HBSS/20 mM Hepes was added to the cells 5 seconds into the assay. Compound activity was analyzed using CBIS data analysis suite (ChemInnovation, CA). Percentage inhibition is calculated using the following formula: % Inhibition=100%×(1−(mean RFU of test sample−mean RFU of vehicle control)/(mean RFU of LPA control−mean RFU of vehicle control)).
Table B1 and Table B2 show the biological activity of compounds in in vitro LPA1 functional antagonist assay. Activity of the tested compounds provided in Table B1 is as follows: +++=IC50<1 μM; ++=IC50 1 μM−10 μM; +=IC50>10 μM.
(In general: Calcium flux is commonly read through the fluorescence of an indicator in the cells.)

Experiment [2] addresses T1, human LPA1. The experiment in a line: In vitro LPA1 calcium flux antagonist assay - Bioduro protocol. To be noted: CHO-K1 cells overexpressing human LPA1 and G15a, LPA challenge at EC80. It counts as cell-based. The essentials: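 Calcium mobilization read on FLIPR after EC80 LPA was added to compound-pretreated (30 min) CHO-K1 cells co-expressing human LPA1 and G15a. Cells were starved 4 h and dye-loaded with Fluo-8 AM/2.5 mM probenecid in HBSS-Hepes; inhibition normalized between DMSO and LPA-control RFU.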

[3] abbreviates: calcium mobilization on FLIPR Tetra, read-out: IC50.
Where [4] appears, read: Table B3, read-out: Activity (IC50 class).
The mark [5] stands for this setting: Table B1, read-out: Activity (IC50 class).

T1 sequence (Q92633 whole entry): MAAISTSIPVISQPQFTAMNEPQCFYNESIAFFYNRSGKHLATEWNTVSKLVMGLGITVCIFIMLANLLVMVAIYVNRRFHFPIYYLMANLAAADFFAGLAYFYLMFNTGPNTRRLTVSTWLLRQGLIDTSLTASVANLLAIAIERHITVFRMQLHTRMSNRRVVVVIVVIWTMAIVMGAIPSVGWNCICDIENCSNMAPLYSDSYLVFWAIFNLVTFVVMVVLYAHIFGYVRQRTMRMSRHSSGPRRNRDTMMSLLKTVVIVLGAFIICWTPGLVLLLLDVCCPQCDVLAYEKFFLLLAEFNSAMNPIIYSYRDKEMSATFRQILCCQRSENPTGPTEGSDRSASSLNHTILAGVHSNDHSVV

Regarding `CCOc1cccc(-c2ccc(NC3(C(=O)O)CCOCC3)cc2COC2CC2)c1Cl` [Compound 295, 4-((2′-chloro-2-(cyclopropoxymethyl)-3′-ethoxy-[1,1′-biphenyl]-4-yl)amino)tetrahydro-2H-pyran-4-carboxylic acid], the half-maximal inhibitory concentration (IC50) (usually the concentration that inhibits the measured activity by half) was 0.00794 µM in experiment [1] (Table B2, read-out: IC50); 0.00331 µM in experiment [2] (setting [3]); < 0.1 µM in experiment [2] (setting [4]).

For `COc1cc(-c2ccc(NC3(C(=O)O)CCOCC3)cc2COC2CC2)c(F)c(OC)c1C` [Compound 256, 4-((2-(cyclopropoxymethyl)-2′-fluoro-3′,5′-dimethoxy-4′-methyl-[1,1′-biphenyl]-4-yl)amino)tetrahydro-2H-pyran-4-carboxylic acid], the IC50 was 0.0103 µM in experiment [1] (Table B2, read-out: IC50); 0.0165 µM in experiment [2] (setting [3]); < 0.1 µM in experiment [2] (setting [4]).

In the case of `COc1cc(-c2ccc(OCCC(=O)O)cc2COC2Cc3ccccc3C2)cc(OC)c1C` [Compound 105, 3-((2-(((2,3-dihydro-1H-inden-2-yl)oxy)methyl)-3′,5′-dimethoxy-4′-methyl-[1,1′-biphenyl]-4-yl)oxy)propanoic acid], the IC50 is < 1 µM in experiment [1] (setting [5]); 0.0136 µM in experiment [1] (Table B2, read-out: IC50); 0.245 µM in experiment [2] (setting [3]); 0.1 to 1 µM in experiment [2] (setting [4]).

Take `CCOc1cccc(-c2ccc(NC3(C(=O)O)CCOCC3)cc2COC2CC2)c1C` [Compound 355, 4-((2-(cyclopropoxymethyl)-3′-ethoxy-2′-methyl-[1,1′-biphenyl]-4-yl)amino)tetrahydro-2H-pyran-4-carboxylic acid]: the half-inhibitory concentration (IC50) in experiment [1] (Table B2, read-out: IC50) is 0.00753 µM; in experiment [2] (setting [3]), 0.00302 µM; in experiment [2] (setting [4]), < 0.1 µM.

Turning to `CCOc1cc(OC)cc(-c2ccc(NC3(C(=O)O)CCOCC3)cc2CCC2CC2)c1F` [Compound 298], the IC50 in experiment [1] (Table B2, read-out: IC50) was 0.00264 µM; in experiment [2] (setting [3]), 0.000763 µM; in experiment [2] (setting [4]), < 0.1 µM.

`COc1cc(-c2ccc(NC3(C(=O)O)CCOCC3)cc2COC2CCCC2)c(C(F)F)c(OC)n1` [Compound 283]: the IC50 in experiment [1] (Table B2, read-out: IC50) is 0.0109 µM; in experiment [2] (setting [3]), 0.0115 µM; in experiment [2] (setting [4]), < 0.1 µM.

`COc1cc(-c2ccc(NC3(C(=O)O)CC3)cc2COC2Cc3ccccc3C2)cc(OC)c1C` [Compound 109, 1-((2-(((2,3-dihydro-1H-inden-2-yl)oxy)methyl)-3′,5′-dimethoxy-4′-methyl-[1,1′-biphenyl]-4-yl)amino)cyclopropane-1-carboxylic acid]: the concentration for half-maximal inhibition (IC50) in experiment [1] (setting [5]) was < 1 µM; in experiment [1] (Table B2, read-out: IC50), 0.00268 µM; in experiment [2] (setting [3]), 0.0941 µM; in experiment [2] (setting [4]), < 0.1 µM.

Turning to `Cc1c(OC2CC2)cccc1-c1ccc(NC2(C(=O)O)CCOCC2)cc1COC1CCCC1` [Compound 285], the 50% inhibitory concentration (IC50) in experiment [1] (Table B2, read-out: IC50) is 0.00662 µM; in experiment [2] (setting [3]), 0.0139 µM; in experiment [2] (setting [4]), < 0.1 µM.

As to `COc1cc(-c2ccc(NCCC(=O)O)cc2COC2Cc3ccccc3C2)cc(OC)c1C` [Compound 101, 3-((2-(((2,3-dihydro-1H-inden-2-yl)oxy)methyl)-3′,5′-dimethoxy-4′-methyl-[1,1′-biphenyl]-4-yl)amino)propanoic acid], the half-maximal inhibitory concentration (IC50) was < 1 µM in experiment [1] (setting [5]); 0.0272 µM in experiment [1] (Table B2, read-out: IC50); 0.34 µM in experiment [2] (setting [3]); 0.1 to 1 µM in experiment [2] (setting [4]).

With `COc1cc(OC)cc(-c2ccc(NCCC(=O)O)cc2COC2Cc3ccccc3C2)c1` [Compound 103], the concentration for half-maximal inhibition (IC50) in experiment [1] (setting [5]) was 1 to 10 µM; in experiment [1] (Table B2, read-out: IC50) it was 1.54 µM.

Regarding `COc1cc(-c2ccc(NCCC(=O)O)cc2COCc2ccccc2)ccc1C(F)F` [Compound 102], the IC50 in experiment [1] (setting [5]) is 1 to 10 µM; in experiment [1] (Table B2, read-out: IC50), 2.49 µM.

Take `Cc1c(OC2CC2)cccc1-c1ccc(NC2(C(=O)O)CCOCC2)cc1COC1CC1` [Compound 294, 4-((3′-cyclopropoxy-2-(cyclopropoxymethyl)-2′-methyl-[1,1′-biphenyl]-4-yl)amino)tetrahydro-2H-pyran-4-carboxylic acid]: the IC50 was 0.00715 µM in experiment [1] (Table B2, read-out: IC50); 0.00585 µM in experiment [2] (setting [3]); < 0.1 µM in experiment [2] (setting [4]).

On to `CCOc1c(C)ccc(-c2ccc(NC3(C(=O)O)CCOCC3)cc2COC2CCCC2)c1C` [Compound 280], for which the IC50 was 0.0186 µM in experiment [1] (Table B2, read-out: IC50); 0.00812 µM in experiment [2] (setting [3]); < 0.1 µM in experiment [2] (setting [4]).

`COc1cc(OC)cc(-c2ccc(OCCC(=O)O)cc2COC2Cc3ccccc3C2)c1` [Compound 104]: the 50% inhibitory concentration (IC50) in experiment [1] (setting [5]) is < 1 µM; in experiment [1] (Table B2, read-out: IC50), 0.162 µM; in experiment [2] (setting [3]), 0.628 µM; in experiment [2] (setting [4]) it was 0.1 to 1 µM.

For the compound `CCCOc1cccc(-c2ccc(NC3(C(=O)O)CCOCC3)cc2COC2CCCC2)c1F` [Compound 284], the IC50 in experiment [1] (Table B2, read-out: IC50) is 0.00397 µM; in experiment [2] (setting [3]), 0.0119 µM; in experiment [2] (setting [4]), < 0.1 µM.

On to `COc1cc(-c2ccc(NC3(C(=O)O)CCOCC3)cc2CCC2CCOC2)cc(OC)c1C` (single isomer, unassigned) [Compound 185, 4-((3′,5′-dimethoxy-4′-methyl-2-(2-(tetrahydrofuran-3-yl)ethyl)-[1,1′-biphenyl]-4-yl)amino)tetrahydro-2H-pyran-4-carboxylic acid], for which the concentration for half-maximal inhibition (IC50) in experiment [1] (Table B2, read-out: IC50) is 0.00954 µM; in experiment [2] (setting [3]), 0.0126 µM; in experiment [2] (setting [4]), < 0.1 µM.

Regarding `CCOc1cc(-c2ccc(NC3(C(=O)O)CCOCC3)cc2COC2CCCC2)cc(OC)c1C` [Compound 330], the results for the IC50 in experiment [2] (setting [3]) and in experiment [2] (setting [4]) were 0.00953 µM and < 0.1 µM, respectively.

Turning to `COc1cc(-c2ccc(NC3(C(=O)O)CCOCC3)cc2COC2CCCC2)c(Cl)c(OC)c1C#N` [Compound 262], the IC50 in experiment [2] (setting [3]) was 0.0308 µM; in experiment [2] (setting [4]), < 0.1 µM.

As to `CCOc1cccc(-c2ccc(NC3(C(=O)O)CCOCC3)cc2CCC2CC2)c1F` [Compound 373], the IC50 in experiment [2] (setting [3]) is 0.0012 µM; in experiment [2] (setting [4]), < 0.1 µM.
